Experimental findings from ChEMBL document CHEMBL5321200, “Discovery of the GSH responsive "Y-PROTACs" targeting ALK and CDK4/6 as a potential treatment for cancer” (Eur J Med Chem, 2023) are described below.

Series [1] can be described thus: Toxicity in BALB/c nude mouse xenografted with human NCI-H3122 cells assessed as effect on spleen function at 50 mg/kg, IG administered once daily for 18 days by H and E staining based assay. In kind it is organism-based. The following applies: in vivo, po, 432 h, time 18 day.
Series [2] deals with NCI-H3122. The experiment in a line: Antiproliferative activity against human NCI-H3122 cells assessed as inhibition of cell growth incubated for 5 days in presence of 2-(4-(6-((6-acetyl-8-cyclopentyl-5-methyl-7-oxo-7,8-dihydropyrido[2,3-d]pyrimidin-2-yl)amino)pyridin-3-yl)piperazin-1-yl)-N-(2-mercaptoethyl)acetamide by MTT assay. In kind it is functional, cell-based. The conditions noted are these: NCI-H3122, 120 h. Background: Tetrazolium dyes change colour on reduction, which living cells bring about.

Series [3] can be described thus: Toxicity in BALB/c nude mouse xenografted with human NCI-H3122 cells assessed as effect on kidney function at 50 mg/kg, IG administered once daily for 18 days by H and E staining based assay. The following applies: in vivo, po, 432 h, time 18 day. In kind it is organism-based.
The nature of series [4]: Toxicity in BALB/c nude mouse xenografted with human NCI-H3122 cells assessed as effect on visceral heart morphology at 50 mg/kg, IG administered once daily for 18 days and measured after 12 hrs of last dose by H and E staining based assay. The following applies: in vivo, po, 444 h. The format is organism-based. Background: In xenograft studies the graft and the host belong to different species.

Series [5] concerns the target ALK tyrosine kinase receptor (Homo sapiens) (UniProt Q9UM73). The experiment in a line: Inhibition of ALK (unknown origin) at 1 uM by LANCE Ultra TR-FRET assay relative to control.
A short description of series [6]: Toxicity in BALB/c nude mouse xenografted with human NCI-H3122 cells assessed as effect on liver function at 50 mg/kg, IG administered once daily for 18 days by H and E staining based assay. In kind it is organism-based. The following applies: in vivo, po, 432 h, time 18 day.
Series [7] in a line: Toxicity in BALB/c nude mouse xenografted with human NCI-H3122 cells assessed as effect on visceral liver morphology at 50 mg/kg, IG administered once daily for 18 days and measured after 12 hrs of last dose by H and E staining based assay. The format is organism-based. The following applies: in vivo, po, 444 h.
The nature of series [8]: Toxicity in BALB/c nude mouse xenografted with human NCI-H3122 cells assessed as effect on heart function at 50 mg/kg, IG administered once daily for 18 days and measured after 12 hrs of last dose by H and E staining based assay. The format is organism-based. The conditions noted are these: in vivo, po, 444 h.
Series [9] deals with Mus musculus. The series is described as follows: In vivo PROTAC activity at CRBN/EML4-ALK in BALB/c nude mouse xenografted with human NCI-H3122 cells assessed as reduction in EML4-ALK protein expression in tumor at 50 mg/kg, IG administered once daily for 18 days and measured after 12 hrs of last dose by immunohistochemical analysis. The conditions noted are these: time 444.0 hrs. In kind it is functional, organism-based.

Series [10] can be described thus: Toxicity in BALB/c nude mouse xenografted with human NCI-H3122 cells assessed as effect on visceral kidney morphology at 50 mg/kg, IG administered once daily for 18 days and measured after 12 hrs of last dose by H and E staining based assay. In kind it is organism-based. The following applies: in vivo, po, 444 h.
The nature of series [11]: Toxicity in BALB/c nude mouse xenografted with human NCI-H3122 cells assessed as effect on visceral lung morphology at 50 mg/kg, IG administered once daily for 18 days and measured after 12 hrs of last dose by H and E staining based assay. In kind it is organism-based. The following applies: in vivo, po, 444 h.
Series [12] has as its target Protein cereblon/ALK tyrosine kinase receptor (Homo sapiens, UniProt Q96SW2+Q9UM73). The experiment in a line: PROTAC activity at CRBN/ALK in human NCI-H3122 cells assessed as induction of ALK degradation incubated for 24 hrs by Western blot analysis. In kind it is cell-based. A general note: Immunoblotting shows a protein as a band on a membrane.
Series [13] concerns NCI-H3122. The experiment in a line: Antitumor activity against human NCI-H3122 cells xenografted in BALB/c nude mouse assessed as reduction in tumor volume at 50 mg/kg, IG administered once daily for 18 days and measured after 12 hrs of last dose. In kind it is functional, organism-based. The conditions noted are these: time 444.0 hrs.
Series [14] relates to NCI-H3122. The series is described as follows: Antitumor activity against human NCI-H3122 cells xenografted in BALB/c nude mouse assessed as reduction in tumor weight at 50 mg/kg, IG administered once daily for 18 days and measured after 12 hrs of last dose. The format is functional, organism-based. The conditions noted are these: time 444.0 hrs.
A short description of series [15]: Toxicity in BALB/c nude mouse xenografted with human NCI-H3122 cells assessed as effect on visceral spleen morphology at 50 mg/kg, IG administered once daily for 18 days and measured after 12 hrs of last dose by H and E staining based assay. In kind it is organism-based. The conditions noted are these: in vivo, po, 444 h.
The nature of series [16]: Toxicity in BALB/c nude mouse xenografted with human NCI-H3122 cells assessed as effect on lung function at 50 mg/kg, IG administered once daily for 18 days by H and E staining based assay. The format is organism-based. The conditions noted are these: in vivo, po, 432 h, time 18 day.
Series [17] has as its system NCI-H3122. The experiment in a line: Antitumor activity against human NCI-H3122 cells xenografted in BALB/c nude mouse assessed as tumor growth inhibition at 50 mg/kg, IG administered once daily for 18 days and measured after 12 hrs of last dose relative to control. The format is functional. The conditions noted are these: NCI-H3122, po, time 444 hrs, read-out: TGI.

The target of series [18] is ALK tyrosine kinase receptor (Homo sapiens) (UniProt Q9UM73). The series is described as follows: Inhibition of ALK (unknown origin) at 0.05 uM by LANCE Ultra TR-FRET assay relative to control.
Chain of ALK tyrosine kinase receptor (Homo sapiens) (Q9UM73 19-1620 limits assumed): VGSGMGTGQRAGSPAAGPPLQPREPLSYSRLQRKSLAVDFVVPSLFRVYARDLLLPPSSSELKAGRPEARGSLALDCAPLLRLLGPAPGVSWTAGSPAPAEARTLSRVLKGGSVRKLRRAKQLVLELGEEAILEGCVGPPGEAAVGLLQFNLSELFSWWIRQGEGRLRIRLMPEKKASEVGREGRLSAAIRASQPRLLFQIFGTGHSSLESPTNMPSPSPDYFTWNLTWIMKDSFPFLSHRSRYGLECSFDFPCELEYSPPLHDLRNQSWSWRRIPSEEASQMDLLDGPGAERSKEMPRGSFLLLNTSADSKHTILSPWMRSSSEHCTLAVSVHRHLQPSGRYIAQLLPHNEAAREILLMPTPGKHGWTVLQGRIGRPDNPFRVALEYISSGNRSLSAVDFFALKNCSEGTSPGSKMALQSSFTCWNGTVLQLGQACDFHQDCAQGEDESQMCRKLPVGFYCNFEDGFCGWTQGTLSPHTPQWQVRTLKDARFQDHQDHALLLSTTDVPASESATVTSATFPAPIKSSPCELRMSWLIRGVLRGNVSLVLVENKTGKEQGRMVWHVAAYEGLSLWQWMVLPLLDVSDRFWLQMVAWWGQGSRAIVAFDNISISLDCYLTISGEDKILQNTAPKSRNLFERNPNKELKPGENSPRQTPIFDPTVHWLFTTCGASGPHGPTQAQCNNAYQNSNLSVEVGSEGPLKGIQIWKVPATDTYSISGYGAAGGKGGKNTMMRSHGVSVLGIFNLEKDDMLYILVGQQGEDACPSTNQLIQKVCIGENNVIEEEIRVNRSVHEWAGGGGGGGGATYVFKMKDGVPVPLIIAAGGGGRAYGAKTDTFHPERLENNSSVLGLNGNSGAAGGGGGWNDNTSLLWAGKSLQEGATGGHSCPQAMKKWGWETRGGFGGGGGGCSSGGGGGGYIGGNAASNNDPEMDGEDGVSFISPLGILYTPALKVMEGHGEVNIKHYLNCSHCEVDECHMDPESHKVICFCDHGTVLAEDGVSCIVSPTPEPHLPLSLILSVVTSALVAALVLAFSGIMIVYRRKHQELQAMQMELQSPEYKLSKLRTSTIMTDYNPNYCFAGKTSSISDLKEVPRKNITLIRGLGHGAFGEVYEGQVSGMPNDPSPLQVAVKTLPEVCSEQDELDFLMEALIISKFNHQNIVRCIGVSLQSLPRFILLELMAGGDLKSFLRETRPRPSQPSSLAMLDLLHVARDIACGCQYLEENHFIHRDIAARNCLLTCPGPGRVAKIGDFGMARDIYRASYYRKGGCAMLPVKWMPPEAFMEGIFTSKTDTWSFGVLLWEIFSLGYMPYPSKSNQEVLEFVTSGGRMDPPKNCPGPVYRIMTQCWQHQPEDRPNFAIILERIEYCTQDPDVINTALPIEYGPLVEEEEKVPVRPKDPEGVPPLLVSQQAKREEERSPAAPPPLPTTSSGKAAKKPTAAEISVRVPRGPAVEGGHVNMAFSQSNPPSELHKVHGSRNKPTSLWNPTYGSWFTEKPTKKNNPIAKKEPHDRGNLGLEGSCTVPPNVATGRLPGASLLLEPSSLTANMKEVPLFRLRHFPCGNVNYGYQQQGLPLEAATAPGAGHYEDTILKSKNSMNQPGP
In series [19] the test system is NCI-H3122. The series is described as follows: Antiproliferative activity against human NCI-H3122 cells assessed as inhibition of cell growth incubated for 5 days by MTT assay. The format is functional, cell-based. The conditions noted are these: NCI-H3122, 120 h.
Series [20] is described as follows: Toxicity in BALB/c nude mouse xenografted with human NCI-H3122 cells assessed as tolerance at 25 to 50 mg/kg, IG administered once daily for 18 days. In kind it is organism-based. The conditions noted are these: in vivo, po, 432 h, dose 25-50 mg/kg, time 18 day.
Series [21] can be described thus: Toxicity in BALB/c nude mouse xenografted with human NCI-H3122 cells assessed as reduction in body weight at 25 to 50 mg/kg, IG administered once daily for 18 days. In kind it is organism-based. The following applies: in vivo, po, 432 h, dose 25-50 mg/kg, time 18 day.

Molecules are shown by their SMILES. Active and inactive are the calls of the source. No cut-off for these calls is given here.

Chain of Protein cereblon/ALK tyrosine kinase receptor (Q9UM73 whole entry): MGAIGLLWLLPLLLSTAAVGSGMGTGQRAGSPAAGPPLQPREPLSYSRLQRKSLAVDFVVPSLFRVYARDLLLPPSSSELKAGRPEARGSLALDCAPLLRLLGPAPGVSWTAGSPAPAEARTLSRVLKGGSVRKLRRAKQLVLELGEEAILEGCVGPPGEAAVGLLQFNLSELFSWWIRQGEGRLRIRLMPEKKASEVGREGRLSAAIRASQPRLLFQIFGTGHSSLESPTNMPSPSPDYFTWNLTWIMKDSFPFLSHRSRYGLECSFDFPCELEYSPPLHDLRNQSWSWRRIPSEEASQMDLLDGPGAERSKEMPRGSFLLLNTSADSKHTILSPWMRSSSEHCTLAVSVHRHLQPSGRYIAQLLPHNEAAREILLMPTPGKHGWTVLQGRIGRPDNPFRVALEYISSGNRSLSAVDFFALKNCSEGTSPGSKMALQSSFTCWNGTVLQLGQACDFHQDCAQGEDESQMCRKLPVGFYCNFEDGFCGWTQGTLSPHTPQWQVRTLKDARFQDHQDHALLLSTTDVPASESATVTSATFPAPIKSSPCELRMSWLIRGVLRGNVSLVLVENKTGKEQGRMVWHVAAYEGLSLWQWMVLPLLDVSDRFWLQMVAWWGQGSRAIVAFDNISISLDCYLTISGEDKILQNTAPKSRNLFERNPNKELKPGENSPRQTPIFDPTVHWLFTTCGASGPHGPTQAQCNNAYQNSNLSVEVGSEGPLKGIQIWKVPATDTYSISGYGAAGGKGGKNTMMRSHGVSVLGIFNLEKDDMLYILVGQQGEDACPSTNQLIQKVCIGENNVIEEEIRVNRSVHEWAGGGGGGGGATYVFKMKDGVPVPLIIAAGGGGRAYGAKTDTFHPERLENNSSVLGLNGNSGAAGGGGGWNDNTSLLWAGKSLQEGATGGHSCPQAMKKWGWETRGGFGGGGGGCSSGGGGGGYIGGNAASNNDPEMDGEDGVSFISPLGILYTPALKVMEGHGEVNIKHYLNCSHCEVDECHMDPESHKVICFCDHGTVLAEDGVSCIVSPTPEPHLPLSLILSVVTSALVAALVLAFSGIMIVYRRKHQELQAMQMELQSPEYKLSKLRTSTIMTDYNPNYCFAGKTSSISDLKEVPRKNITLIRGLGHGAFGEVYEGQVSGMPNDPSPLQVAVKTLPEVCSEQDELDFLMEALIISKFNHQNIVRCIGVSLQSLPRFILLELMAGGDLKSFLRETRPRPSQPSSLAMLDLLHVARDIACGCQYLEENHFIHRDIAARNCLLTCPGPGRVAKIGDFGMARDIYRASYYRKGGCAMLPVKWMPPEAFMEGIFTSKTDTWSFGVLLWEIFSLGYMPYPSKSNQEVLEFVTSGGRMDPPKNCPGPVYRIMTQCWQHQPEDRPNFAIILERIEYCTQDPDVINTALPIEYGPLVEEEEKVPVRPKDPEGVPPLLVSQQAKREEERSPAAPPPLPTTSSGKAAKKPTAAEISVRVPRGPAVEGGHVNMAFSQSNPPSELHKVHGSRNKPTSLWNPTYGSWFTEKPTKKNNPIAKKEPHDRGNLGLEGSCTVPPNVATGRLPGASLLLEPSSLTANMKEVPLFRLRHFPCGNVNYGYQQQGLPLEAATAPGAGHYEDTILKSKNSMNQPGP
Chain of Protein cereblon/ALK tyrosine kinase receptor (Q96SW2 whole entry): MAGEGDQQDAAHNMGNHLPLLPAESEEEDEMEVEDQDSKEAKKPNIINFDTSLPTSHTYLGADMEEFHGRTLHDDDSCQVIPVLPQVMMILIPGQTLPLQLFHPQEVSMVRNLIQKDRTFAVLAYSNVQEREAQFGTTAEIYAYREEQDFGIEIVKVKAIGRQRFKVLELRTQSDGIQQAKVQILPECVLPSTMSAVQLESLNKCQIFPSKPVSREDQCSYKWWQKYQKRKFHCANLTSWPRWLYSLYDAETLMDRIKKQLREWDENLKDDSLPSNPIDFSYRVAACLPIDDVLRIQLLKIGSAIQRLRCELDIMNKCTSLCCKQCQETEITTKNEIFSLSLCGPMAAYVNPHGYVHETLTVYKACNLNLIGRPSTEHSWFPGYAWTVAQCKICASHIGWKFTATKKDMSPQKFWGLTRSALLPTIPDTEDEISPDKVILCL

As for `Cc1cc(Nc2ncc(Cl)c(Nc3ccccc3S(=O)(=O)C(C)C)n2)c(OC(C)C)cc1C1CCN(C(=O)CCCCCCC(=O)N(CCS)CC(=O)NCCNc2cccc3c2C(=O)N(C2CCC(=O)NC2=O)C3=O)CC1` (stereo unspecified), the Activity entry in series [1], in series [3], in series [4], in series [6], in series [7] and in series [8] was “Non-Toxic” in each case. The Activity result in series [10], in [11], in series [15], in series [16], in series [20] and in series [21] was “Non-Toxic” throughout. The values for the IC50 in series [2] and in series [19] were 0.19 µM and 0.38 µM, respectively. Also, the inhibition in series [5] stood at 93%; in series [18], 82.2%. Also, the outcome in series [9], in series [13] and in [14] was Active. The EC50 in [12] was 0.69 µM. For the same molecule, in series [17], the inhibition in vivo at 50 mg/kg amounted to 51.1%.

As a reminder, the IC50 is the concentration that gives 50% inhibition. One may read the inhibition as the drop in the measured response relative to a control, in per cent. As usually defined, the EC50 is the midpoint of the concentration-response curve.
